Measurements from ChEMBL document CHEMBL5303573, “Mapping human microbiome drug metabolism by gut bacteria and their genes” (Nature, 2019).

Tests used:
[1] = parabacteroides distasonis, 12 h, 2 µM
Description: The drug is tested on Parabacteroides distasonis strain: ATCC8503 for biotransformation. The drug concentrations were measured before and after a 12-h incubation by liquid-chromatography-coupled mass spectrometry (LC–MS)

[2] = bacteroides eggerthii, 12 h, 2 µM
Description: The drug is tested on Bacteroides eggerthii strain: DSM20697 for biotransformation. The drug concentrations were measured before and after a 12-h incubation by liquid-chromatography-coupled mass spectrometry (LC–MS)

[3] = The drug is tested on Eubacterium rectale strain: ATCC33656 for biotransformation. The drug concentrations were measured before and after a 12-h incubation by liquid-chromatography-coupled mass spectrometry (LC–MS); details: agathobacter rectalis, 2 µM
[4] = The drug is tested on Bacteroides dorei strain: DSM17855 for biotransformation. The drug concentrations were measured before and after a 12-h incubation by liquid-chromatography-coupled mass spectrometry (LC–MS); details: phocaeicola dorei, 2 µM
[5] = The drug is tested on Blautia hansenii strain: DSM20583 for biotransformation. The drug concentrations were measured before and after a 12-h incubation by liquid-chromatography-coupled mass spectrometry (LC–MS); details: 2 µM
[6] = bacteroides stercoris, 12 h, 2 µM
Description: The drug is tested on Bacteroides stercoris strain: ATCC43183 for biotransformation. The drug concentrations were measured before and after a 12-h incubation by liquid-chromatography-coupled mass spectrometry (LC–MS)

[7] = The drug is tested on Collinsella intestinalis strain: DSM13280 for biotransformation. The drug concentrations were measured before and after a 12-h incubation by liquid-chromatography-coupled mass spectrometry (LC–MS); details: 2 µM
[8] = The drug is tested on Bacteroides finegoldii strain: DSM17565 for biotransformation. The drug concentrations were measured before and after a 12-h incubation by liquid-chromatography-coupled mass spectrometry (LC–MS); details: 2 µM
[9] = The drug is tested on Bacteroides sp. WH2 strain: WH2 for biotransformation. The drug concentrations were measured before and after a 12-h incubation by liquid-chromatography-coupled mass spectrometry (LC–MS); details: bacteroides sp. wh2, 12 h, 2 µM
[10] = The drug is tested on Anaerococcus hydrogenalis strain: DSM7454 for biotransformation. The drug concentrations were measured before and after a 12-h incubation by liquid-chromatography-coupled mass spectrometry (LC–MS); details: 2 µM
[11] = The drug is tested on Bacteroides pectinophilus strain: ATCC43243 for biotransformation. The drug concentrations were measured before and after a 12-h incubation by liquid-chromatography-coupled mass spectrometry (LC–MS); details: 2 µM
[12] = The drug is tested on Bacteroides ovatus strain: ATCC8483 for biotransformation. The drug concentrations were measured before and after a 12-h incubation by liquid-chromatography-coupled mass spectrometry (LC–MS); details: 2 µM
[13] = The drug is tested on Bifidobacterium longum subsp. Infantis strain: CCUG52486 for biotransformation. The drug concentrations were measured before and after a 12-h incubation by liquid-chromatography-coupled mass spectrometry (LC–MS); details: 2 µM
[14] = limosilactobacillus reuteri cf48-3a, 12 h, 2 µM
Description: The drug is tested on Lactobacillus reuteri CF48-3A strain: BEI HM-102 for biotransformation. The drug concentrations were measured before and after a 12-h incubation by liquid-chromatography-coupled mass spectrometry (LC–MS)

[15] = The drug is tested on Bifidobacterium breve strain: DSM20213 for biotransformation. The drug concentrations were measured before and after a 12-h incubation by liquid-chromatography-coupled mass spectrometry (LC–MS); details: 2 µM
[16] = The drug is tested on Ruminococcus torques strain: ATCC27756 for biotransformation. The drug concentrations were measured before and after a 12-h incubation by liquid-chromatography-coupled mass spectrometry (LC–MS); assay type: ADME; set-up: dose 2 uM, timepoint 0 vs 12 hours; details: 2 µM
[17] = The drug is tested on Clostridium sp. strain: fecal isolate for biotransformation. The drug concentrations were measured before and after a 12-h incubation by liquid-chromatography-coupled mass spectrometry (LC–MS); details: 2 µM
[18] = The drug is tested on Anaerotruncus colihominis strain: DSM17241 for biotransformation. The drug concentrations were measured before and after a 12-h incubation by liquid-chromatography-coupled mass spectrometry (LC–MS); details: 2 µM
[19] = bacteroides thetaiotaomicron, 12 h, 2 µM
Description: The drug is tested on Bacteroides thetaiotaomicron strain: 7330 for biotransformation. The drug concentrations were measured before and after a 12-h incubation by liquid-chromatography-coupled mass spectrometry (LC–MS)

[20] = The drug is tested on Providencia rettgeri strain: DSM1131 for biotransformation. The drug concentrations were measured before and after a 12-h incubation by liquid-chromatography-coupled mass spectrometry (LC–MS); assay type: ADME; set-up: dose 2 uM, timepoint 0 vs 12 hours; details: 2 µM

Compound | Bacterial Biotransformation [1] | Bacterial Biotransformation [2] | Bacterial Biotransformation [3] | Bacterial Biotransformation [4] | Bacterial Biotransformation [5] | Bacterial Biotransformation [6] | Bacterial Biotransformation [7] | Bacterial Biotransformation [8] | Bacterial Biotransformation [9] | Bacterial Biotransformation [10] | Bacterial Biotransformation [11] | Bacterial Biotransformation [12] | Bacterial Biotransformation [13] | Bacterial Biotransformation [14] | Bacterial Biotransformation [15] | Bacterial Biotransformation [16] | Bacterial Biotransformation [17] | Bacterial Biotransformation [18] | Bacterial Biotransformation [19] | Bacterial Biotransformation [20]
CC(C)(C)NC(=O)[C@H]1CC[C@H]2[C@@H]3CC[C@H]4NC(=O)C=C[C@]4(C)[C@H]3CC[C@]12C [FINASTERIDE] | Compound NOT metabolized | Compound metabolized | Compound NOT metabolized | Compound metabolized | Compound NOT metabolized | Compound NOT metabolized | Compound NOT metabolized | Compound metabolized | Compound NOT metabolized | Compound NOT metabolized | Compound NOT metabolized | Compound NOT metabolized | Compound NOT metabolized | Compound NOT metabolized | Compound NOT metabolized | Compound NOT metabolized | Compound NOT metabolized | Compound NOT metabolized | – | –
CCCN1C[C@H](CSC)C[C@@H]2c3cccc4[nH]cc(c34)C[C@H]21.CS(=O)(=O)O [PERGOLIDE MESYLATE] | – | Compound NOT metabolized | Compound NOT metabolized | Compound NOT metabolized | Compound NOT metabolized | Compound NOT metabolized | Compound NOT metabolized | Compound NOT metabolized | Compound NOT metabolized | Compound NOT metabolized | Compound NOT metabolized | Compound NOT metabolized | Compound NOT metabolized | Compound NOT metabolized | Compound NOT metabolized | Compound NOT metabolized | Compound NOT metabolized | Compound NOT metabolized | Compound NOT metabolized | –
CC(=O)O[C@]1(C(C)=O)CC[C@H]2[C@@H]3C=C(C)C4=CC(=O)CC[C@]4(C)[C@H]3CC[C@@]21C [MEGESTROL ACETATE] | Compound metabolized | Compound metabolized | Compound NOT metabolized | Compound metabolized | Compound metabolized | Compound metabolized | Compound NOT metabolized | Compound NOT metabolized | – | Compound NOT metabolized | Compound NOT metabolized | Compound NOT metabolized | Compound NOT metabolized | Compound NOT metabolized | Compound NOT metabolized | Compound NOT metabolized | Compound metabolized | Compound NOT metabolized | Compound metabolized | –
CCN(CC)C(C)CN1c2ccccc2Sc2ccccc21 (stereo not given) [ETHOPROPAZINE] | Compound metabolized | Compound NOT metabolized | Compound NOT metabolized | Compound metabolized | Compound metabolized | Compound NOT metabolized | Compound NOT metabolized | Compound NOT metabolized | Compound NOT metabolized | Compound NOT metabolized | Compound metabolized | Compound metabolized | – | – | Compound NOT metabolized | – | Compound metabolized | Compound NOT metabolized | Compound metabolized | –
Cc1ccc(S(=O)(=O)NC(=O)NN2CC3CCCC3C2)cc1 (stereo not given) [GLICLAZIDE] | Compound NOT metabolized | Compound NOT metabolized | Compound NOT metabolized | Compound metabolized | Compound NOT metabolized | Compound NOT metabolized | Compound NOT metabolized | Compound NOT metabolized | Compound NOT metabolized | Compound NOT metabolized | Compound NOT metabolized | Compound NOT metabolized | Compound NOT metabolized | Compound NOT metabolized | Compound NOT metabolized | Compound NOT metabolized | Compound NOT metabolized | Compound NOT metabolized | Compound NOT metabolized | –
C#C[C@]1(OC(C)=O)CC[C@H]2[C@@H]3CCC4=C/C(=N/O)CC[C@@H]4[C@H]3CC[C@@]21CC [NORGESTIMATE] | – | Compound NOT metabolized | Compound metabolized | Compound metabolized | Compound metabolized | – | Compound NOT metabolized | Compound metabolized | Compound NOT metabolized | Compound NOT metabolized | Compound NOT metabolized | Compound NOT metabolized | Compound NOT metabolized | – | Compound NOT metabolized | Compound NOT metabolized | Compound metabolized | Compound NOT metabolized | Compound NOT metabolized | Compound NOT metabolized
COc1ccc([C@@H]2Sc3ccccc3N(CCN(C)C)C(=O)[C@@H]2OC(C)=O)cc1 [DILTIAZEM] | Compound metabolized | Compound NOT metabolized | Compound NOT metabolized | Compound metabolized | Compound metabolized | – | Compound NOT metabolized | Compound metabolized | Compound metabolized | Compound NOT metabolized | Compound NOT metabolized | Compound metabolized | Compound metabolized | – | Compound NOT metabolized | Compound metabolized | Compound metabolized | Compound NOT metabolized | Compound metabolized | –
COCCCC/C(=N\OCCN)c1ccc(C(F)(F)F)cc1.O=C(O)/C=C\C(=O)O [FLUVOXAMINE MALEATE] | – | Compound NOT metabolized | Compound NOT metabolized | Compound NOT metabolized | Compound metabolized | – | – | Compound NOT metabolized | Compound NOT metabolized | Compound NOT metabolized | Compound metabolized | Compound metabolized | Compound NOT metabolized | Compound NOT metabolized | Compound NOT metabolized | Compound NOT metabolized | Compound metabolized | Compound NOT metabolized | Compound metabolized | Compound NOT metabolized
